Values quoted from earlier work in patent US20160271085A1 (priority 2015, published 2016).

Key:
[1] = system: amyotrophic lateral sclerosis; conditions: ALS
[2] = system: injured sciatic nerves; conditions: addition of lactate; response did not occur in an atmosphere of nitrogen
[3] = oral, ingested

Nc1nc2ccc(OC(F)(F)F)cc2s1 [Riluzole]
progress of the disease [1]: appears to slow the progress of the disease

CC(O)C(=O)O (stereo not drawn) [lactate]
sustained muscle contraction [2]: enhanced

CC(O)C(=O)[O-].[Na+] (stereo not drawn) [sodium lactate, Sodium lactate]
serum lactate levels [3]: significantly elevate serum lactate levels
